Results on seven compounds are retold here after patent publication US9120787B2, “HIV replication inhibitors” (priority 2011, dated 2015).

SMILES strings stand for the structures. Like-named read-outs stand apart in the source and are kept apart here.

In data set [1] the test system is HIV-1Ba-L. Put plainly: Inhibition of virus replication in MAGI-CCR5 cells (β-galactosidase reporter). The data set is classed as cell-based. Particulars: HIV-1Ba-L in MAGI-CCR5 cells; for IC50: Human immunodeficiency virus 1, 48 hours, β-galactosidase reporter expression, read-out: IC50. In outline:
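HeLa-derived MAGI-CCR5 cells (high CD4/CCR5, HIV-1 LTR-driven β-galactosidase) plated at 1.0×10^4 cells/well the day before infection with HIV-1Ba-L. Compounds tested at six concentrations in triplicate, with parallel uninfected plates for cytotoxicity.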

For the next data set, the system named is HIV-1 K103N, Y181C (A17). In words: HIV-1 K103N, Y181C (A17) replication in PBMCs. It counts as cell-based. Particulars: for IC50: Human immunodeficiency virus 1, PBMC; for TI (TC50/IC50): Virus A17 (K103N, Y181C) in PBMCs; for effect of RT changes K103N and Y181C on anti-viral activity: virus with K103 to Asparagine and Y181 to cysteine. From the text: In another embodiment of the present disclosure compounds are provided which inhibit the replication of HIV strains resistant to NNRTIs. Compounds in this disclosure inhibit, A17, an HIV-1 virus with mutations in the RT non-nucleoside binding pocket, K103N and Y181C, in a dose-dependent susceptibility testing manner.
The asparagine variation at residue 103 and the cysteine variation at residue 181 are known to inhibit the activity of the NNRTI's.
Evaluation Dihydropyrimidines vs. HIV-1Ba-L and HIV-1 K103N, Y181C in PBMCs

A short description of data set [2]: Cytotoxicity by MTS staining in uninfected MAGI-CCR5 cells. The data set is classed as cell-based. Particulars: human, read-out: TC50. The procedure, abridged:
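Uninfected MAGI-CCR5 cells (HeLa-CD4-LTR-β-gal derived, expressing CD4/CCR5) plated at 1.0×10^4 cells/well the day before, then exposed to compounds at six concentrations in triplicate alongside parallel infected assays. Viability read by MTS staining.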

A short description of data set [3]: Cytotoxicity by MTS staining in PBMCs. It counts as cell-based. Particulars: human, peripheral blood mononuclear cells (PBMC), read-out: TC50. As to the method: Cytotoxicity was assessed by MTS staining. At assay end-point, PBMC were stained with the addition of […] of the soluble tetrazolium-based dye MTS to determine cell viability and quantify compound toxicity. The plates were incubated 4 to 6 hrs at 37° C. Following incubation, the activity was assessed by reading absorbance values at 490/650 nm.

Data set [4] relates to HIV-1Ba-L. Put plainly: HIV-1Ba-L replication in PBMCs (supernatant RT end-point). In outline: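 Pooled PHA-stimulated human PBMCs (5×10^4 cells/well) were infected with HIV-1Ba-L at MOI 0.1 with nine ½-log compound dilutions and cultured seven days at 37° C. Supernatant RT activity was measured by ^3H-TTP incorporation on poly rA:oligo dT (60 minutes, 37° C) and counted by scintillation.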

[5] abbreviates: Human immunodeficiency virus 1, BAL, PBMC.
Where [6] appears, read: Human immunodeficiency virus 1, PBMC, 168 h.
Setting [7] is: Virus Ba-L in PBMCs (Ba-L vs A17 comparison).

The IC50 is the point on the concentration scale where inhibition reaches its midpoint.

`CC1=C(c2nc(-c3ccc(C#N)cc3)cs2)C(c2cc3ccccc3[nH]2)NC(=O)N1` (centres unmarked) [Example 10]: the “TI (TC50/IC50)” value was “C (C < 50.0 to 10.0)” in the data set on HIV-1Ba-L [1]; “D (D < 10.0)” in the data set with HIV-1 K103N, Y181C (A17); “C (C < 50.0-10.0)” in the data set on HIV-1Ba-L [4] (HIV-1Ba-L in PBMCs); “B (B < 100.0-50.0)” in the data set on HIV-1Ba-L [4] (setting [7]). In addition, the IC50 was in the range of 1 to 5 µM in the data set on HIV-1Ba-L [1]; 5 to 100 µM in the data set with HIV-1 K103N, Y181C (A17); 1 to 5 µM in the data set with HIV-1Ba-L [4] (setting [5]); 1 to 5 µM in the data set on HIV-1Ba-L [4] (setting [6]). Further, in data set [2], the CC50 at 48 h was less than 50 µM. Also, the CC50 at 7 days is no less than 100 µM in data set [3] (A17 line of the table), no less than 100 µM in data set [3] (Ba-L line of the table) and 50 to 100 µM in data set [3] (MTS staining).

Consider `CC1=C(c2nc(-c3ccc(C#N)cc3)cs2)C(c2cc3ccccc3n2C)NC(=O)N1` (centres unmarked) [Example 11], for which the “TI (TC50/IC50)” value in the data set on HIV-1Ba-L [1] is given as “A (A = TI (TC50/IC50) ≧ 100.0)”; in the data set with HIV-1 K103N, Y181C (A17), “D (D < 10.0)”; with HIV-1Ba-L [4] (HIV-1Ba-L in PBMCs), “A (A = TI (TC50/IC50) ≧100.0)”; with HIV-1Ba-L [4] (setting [7]), “A (A = TI (TC50/IC50) ≧ 100.0)”. In addition, the IC50 in the data set with HIV-1Ba-L [1] is less than 1 µM; with HIV-1 K103N, Y181C (A17), greater than 100 µM; with HIV-1Ba-L [4] (setting [5]) it was less than 1 µM; with HIV-1Ba-L [4] (setting [6]) it was less than 1 µM. In addition, the “effect of RT changes K103N and Y181C on anti-viral activity” value in the data set with HIV-1 K103N, Y181C (A17) is recorded as “inhibit the anti-viral activity”. Also, the CC50 at 48 h in data set [2] was no less than 100 µM. Also, the CC50 at 7 days in data set [3] (A17 line of the table), in data set [3] (Ba-L line of the table) and in data set [3] (MTS staining) was no less than 100 µM throughout.

For `CC1=C(c2nc(-c3ccc(C#N)cc3)cs2)C(c2ccc(F)nc2)NC(=O)N1` (centres unmarked) [Example 19], the “TI (TC50/IC50)” value in the data set with HIV-1Ba-L [1] was “B (B < 100.0-50.0)”; in the data set with HIV-1 K103N, Y181C (A17), “D (D < 10.0)”; with HIV-1Ba-L [4] (HIV-1Ba-L in PBMCs), “A (A = TI (TC50/IC50) ≧100.0)”; in the data set with HIV-1Ba-L [4] (setting [7]), “A (A = TI (TC50/IC50) ≧ 100.0)”. For the same compound, the IC50 in the data set with HIV-1Ba-L [1] was 1 to 5 µM; in the data set on HIV-1 K103N, Y181C (A17), greater than 100 µM; in the data set with HIV-1Ba-L [4] (setting [5]) it was less than 1 µM; in the data set on HIV-1Ba-L [4] (setting [6]) it was less than 1 µM. Besides, the “effect of RT changes K103N and Y181C on anti-viral activity” value with HIV-1 K103N, Y181C (A17) is “inhibit the anti-viral activity”. Also, the CC50 at 48 h in data set [2] is no less than 100 µM. Besides, the CC50 at 7 days in data set [3] (A17 line of the table), in data set [3] (Ba-L line of the table) and in data set [3] (MTS staining) was no less than 100 µM throughout.

Consider `CC1=C(c2nc(-c3ccc(C#N)cc3)cs2)C(c2cnc3ccccc3n2)NC(=O)N1` (centres unmarked) [Example 21], for which the “TI (TC50/IC50)” value with HIV-1Ba-L [1] is recorded as “D (D < 10.0)”; in the data set with HIV-1 K103N, Y181C (A17) it was “D (D < 10.0)”; in the data set on HIV-1Ba-L [4] (HIV-1Ba-L in PBMCs) it was “D (D < 10.0)”; with HIV-1Ba-L [4] (setting [7]) it was “D (D < 10.0)”. The IC50 is greater than 100 µM in the data set with HIV-1Ba-L [1]; greater than 100 µM with HIV-1 K103N, Y181C (A17); greater than 100 µM with HIV-1Ba-L [4] (setting [5]); greater than 100 µM in the data set on HIV-1Ba-L [4] (setting [6]). Besides, in data set [2], the CC50 at 48 h was no less than 100 µM. The CC50 at 7 days in data set [3] (A17 line of the table), in data set [3] (Ba-L line of the table) and in data set [3] (MTS staining) was no less than 100 µM throughout.

Regarding `COc1ccc(-c2csc(C3=C(C)NC(=O)NC3c3ccc(F)c([N+](=O)[O-])c3)n2)cc1` (centres unmarked) [Example 42], the “TI (TC50/IC50)” value is “D (D < 10.0)” with HIV-1Ba-L [1]; “D (D < 10.0)” with HIV-1 K103N, Y181C (A17); “D (D < 10.0)” with HIV-1Ba-L [4] (HIV-1Ba-L in PBMCs); “D (D < 10.0)” in the data set with HIV-1Ba-L [4] (setting [7]). The IC50 was greater than 100 µM with HIV-1Ba-L [1]; 5 to 100 µM in the data set on HIV-1 K103N, Y181C (A17); 5 to 100 µM with HIV-1Ba-L [4] (setting [5]); 5 to 100 µM with HIV-1Ba-L [4] (setting [6]). The CC50 at 48 h in data set [2] was no less than 100 µM. The CC50 at 7 days in data set [3] (A17 line of the table), in data set [3] (Ba-L line of the table) and in data set [3] (MTS staining) was no less than 100 µM throughout.

In the case of `CC1=C(c2nc(-c3ccc(Cl)cc3)cs2)C(c2cccc(O)c2)NC(=O)N1` (centres unmarked) [Example 74], the “TI (TC50/IC50)” value in the data set with HIV-1Ba-L [1] is “C (C < 50.0 to 10.0)”; with HIV-1Ba-L [4] (HIV-1Ba-L in PBMCs), “C (C < 50.0-10.0)”. Moreover, the IC50 in the data set with HIV-1Ba-L [1] and in the data set on HIV-1Ba-L [4] (setting [6]) was 1 to 5 µM each time. Also, the CC50 at 48 h in data set [2] was in the range of 50 to 100 µM. Further, the CC50 at 7 days in data set [3] (MTS staining) is 50 to 100 µM.

As for `CC1=C(c2nc(-c3ccc(C#N)cc3)cs2)C(c2cc(O)cc(O)c2)NC(=O)N1` (centres unmarked) [Example 80], the “TI (TC50/IC50)” value is “D (D < 10.0)” in the data set with HIV-1Ba-L [1] and “B (B < 100.0-50.0)” with HIV-1Ba-L [4] (HIV-1Ba-L in PBMCs). Further, the IC50 with HIV-1Ba-L [1] is greater than 100 µM; in the data set on HIV-1Ba-L [4] (setting [6]), 1 to 5 µM. The CC50 at 48 h in data set [2] is no less than 100 µM. The CC50 at 7 days in data set [3] (MTS staining) was no less than 100 µM.
